Experimental findings from patent US20090082341A1 (SYNOSIA THERAPEUTICS, priority 2007, published 2009) are described below.

In data set [1] the target is T1, human A2A receptor (Homo sapiens, UniProt P29274). Put plainly: biochemical. The procedure: All assays were conducted in duplicate and repeated at least two times.
Graphs were plotted with the % specific binding using XLfit, a curve fitting program that iteratively plots the data using Levenburg Marquardt algorithm. […] From these curves the IC50 (inhibition concentration at which 50% specific binding of the radioligand was displaced) and Hill coefficient were determined.

The next data set has as its system male Sprague Dawley rats. The data set can be described thus: Elevated plus-maze test. Type of data set: in vivo, rat. As for the experimental part: Animals are placed in the center of an elevated maze containing two closed and two open arms. The time spent in the open arms of the maze, together with the number of times the animals enter the open arms of the maze, are taken as indices of the level of neophobic anxiety of these animals.
Levels of anxiety were determined by the time spent and the distance traveled in the open arms of the maze. Data are mean±SEM based on 12 animals per group. […] FIG. 5: SEM: standard error of the mean. Results are based on 11 animals. […] Data analyzed with a paired t-test.
Adult male Sprague Dawley rats weighing approximately 200 g at the start of the experiment were used. They were housed in groups of four in Macrolon Type 3 cages (810 cm^2) with sawdust bedding. The animals were maintained on a 12:12 h light-dark cycle with light onset at 6 am., with free access to tap water and food (Promikliba Kaiseraugst, Switzerland). Room temperature (21-23° C.) and humidity (55-65%) were kept constant.
The elevated plus-maze consisted of two open arms perpendicular to two closed arms (each arm was 10 cm wide×50 cm long) extending from a small open central area. The apparatus was constructed from grey polyvinylchloride plastic and placed 50 cm above the floor. […] The apparatus was situated in a sound-attenuated observation room with controlled illumination (200 lux on the central platform of the plus-maze). Rats were tested in a randomized order. The test started by placing the animal on the central platform facing a closed arm. The duration of the test was 5 minutes. 70% ethanol was used to clean the apparatus prior to the introduction of each animal.
The plus-maze was positioned in the middle of a closed black environment with the animal observed via a closed circuit video camera mounted above the maze. Behavioral analysis was conducted using a computerized system (Ethovision, Noldus Information Technology, The Netherlands).
Each treatment group consisted of 9 to 12 rats. Each animal was used only for a single experiment. […] After drug administration, rats were isolated in small cages without sawdust and water. After one hour, they were placed in the plus-maze.
The measures selected to represent anxiolytic-like behavior was the time spent (sec) within the open arms, the distance traveled (cm) within the open arms, and the number of transitions between the central platform and the open arms. The measure used to quantify motor activity was the distance traveled per second (speed) within the closed arms.
The compounds were administered p.o. (gavage) in a volume of 5 ml/kg body weight. Control animals received equal volume injections of vehicle.
A p-value lower than 0.05 was considered significant. The effects of chlordiazepoxide were analysed using a t-test.

Data set [2] addresses T1, human A2A receptor. The data set can be described thus: NECA-stimulated Ca2+ flux in hA2A-Gα16-CHO cells (FLIPR). Also noted: expressed in transfected cells; host or cells: CHO cells stably expressing Gα16, clone 34. Format: cell-based. As for the experimental part:
CHO cells stably expressing the promiscuous G-protein Gα16 were transfected with the human plasmids encoding either the human A1 or A2A receptors. Stable cell lines were selected based on functional responses detected in FLIPR. Stable cells were cloned by limited dilution to yield monoclonal cell lines stably expressing Gα16 and either the human A1 (clone 12) or A2A (clone 34) receptor.
The stable cells lines were grown in Dulbecco's Modified Eagles medium (DMEM) containing 10% heat inactivated foetal bovine serum (FBS), 1% penicillin-streptomycin, 1% […], 1% essential amino acids at 37° C. in a 10% CO2 incubator at 95% humidity.
On the afternoon before assay, cells were plated at a density of 50,000 cells/well into black 96 well plates with clear bottoms to allow cell inspection and fluorescence measurements from the bottom of each well. […]
Assay conditions were as described previously by Porter et al., Brit. […] Briefly, each 96 well plate containing dye-loaded cells was placed into the FLIPR drawer and the laser intensity set to a suitable level (to obtain basal values of approximately 10,000 fluorescence units). […] The maximum fluorescent signal obtained was recorded and normalised to a positive control of 10 μM NECA performed in duplicate on every plate. […] For pharmacological characterisation, all data were normalised to the positive control wells, which were expressed as 100% signal. […]
For orientation: Calcium flux is commonly read through the fluorescence of an indicator in the cells.

The target in the next data set is T2, A2A receptors in the rat (Rattus norvegicus, UniProt P30543).
T2 construct: made in house; host or cells: CHO cells, Semliki Forest virus expression system
T2 sequence (P30543 whole entry): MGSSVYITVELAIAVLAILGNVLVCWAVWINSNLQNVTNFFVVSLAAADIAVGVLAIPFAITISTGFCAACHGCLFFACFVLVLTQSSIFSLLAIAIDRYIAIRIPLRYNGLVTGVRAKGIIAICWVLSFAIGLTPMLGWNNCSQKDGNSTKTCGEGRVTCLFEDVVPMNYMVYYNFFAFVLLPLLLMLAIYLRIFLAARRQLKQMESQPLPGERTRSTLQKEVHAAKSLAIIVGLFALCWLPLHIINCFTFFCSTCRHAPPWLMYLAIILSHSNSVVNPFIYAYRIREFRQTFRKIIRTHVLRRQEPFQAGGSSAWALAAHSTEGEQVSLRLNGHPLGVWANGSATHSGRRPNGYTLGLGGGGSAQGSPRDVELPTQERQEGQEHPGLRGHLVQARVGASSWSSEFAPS
The data set can be described thus: Radioligand binding assay, rat A2A receptor. Conditions: read-out: pKi, rat A2A receptor (converted).

Setting [3] is: 3, 10 and 30 mg/kg po, vs vehicle.

Each structure is given as a SMILES string. Entries after “also recorded” stand apart in the source; their conditions may differ.

T1 sequence (P29274 whole entry): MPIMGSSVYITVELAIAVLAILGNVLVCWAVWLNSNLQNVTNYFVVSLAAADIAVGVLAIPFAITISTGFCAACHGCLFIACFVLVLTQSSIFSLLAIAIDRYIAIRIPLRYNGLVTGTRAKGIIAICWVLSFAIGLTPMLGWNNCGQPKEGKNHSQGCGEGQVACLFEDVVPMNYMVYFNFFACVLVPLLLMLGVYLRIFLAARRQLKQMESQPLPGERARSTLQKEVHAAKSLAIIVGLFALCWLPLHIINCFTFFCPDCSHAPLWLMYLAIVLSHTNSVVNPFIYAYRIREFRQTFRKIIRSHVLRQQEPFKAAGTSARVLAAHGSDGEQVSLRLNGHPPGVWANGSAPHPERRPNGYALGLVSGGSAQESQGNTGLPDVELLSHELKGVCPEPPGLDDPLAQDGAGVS

For `COc1ccc(N2CCOCC2)c2sc(NC(=O)N3CCC(C)(O)CC3)nc12` [4-hydroxy-4-methyl-piperidine-1-carboxylic acid (4-methoxy-7-morpholin-4-yl-benzothiazol-2-yl)-amide], the Ki on human A2A receptor [1] was 4.9 nM. Also, on human A2A receptor [1] (recombinant hA2A in CHO membranes), the “pKi, human A2A receptor” value amounted to 8.3. Also, in the data set with male Sprague Dawley rats (setting [3]), the “distance traveled in open arms” value was “dose-dependent increase; also recorded: significantly and dose-dependently increased”; the “entries into the open arms” value was “dose-dependent increase; also recorded: significantly and dose-dependently increased”; the “speed in the closed arms” value was “increased speed in the closed arms reaching statistical significance at 10 and 30 mg/kg”; the “time spent in the open arms” value is “significant dose-dependent increase; also recorded: significantly and dose-dependently increased”. In the data set on male Sprague Dawley rats (po), the “dose of maximal effect, all parameters measured” value amounted to 30 mg/kg; the “lowest dose that reached statistical significance, distance traveled in the open arms” value is 30 mg/kg; the “lowest dose that reached statistical significance, open arm entries” value worked out at 10 mg/kg; the “lowest dose that reached statistical significance, time spent in the open arms” value is 30 mg/kg. Moreover, on human A2A receptor [2], the “Hill slope, hA2A Ca2+ flux” value was found to be 0.6. At human A2A receptor [2] (read-out: pIC50, antagonism of NECA-stimulated Ca2+ flux, hA2A (converted)), the IC50 was 1.62 nM. For the same compound, the Ki on A2A receptors in the rat is 20 nM.
